Results published in patent US20240351997A1, “NOVEL PARP7 INHIBITOR AND USE THEREOF” (SHANGHAI QILU PHARMACEUTICAL RESEARCH AND DEVELOPMENT …, priority 2021, published 2024).

molecular target: PARP7 (Homo sapiens (Human), UniProt Q7Z3E1); assay: In vitro enzymology experiment of PARP7 (enzymatic inhibition); assay type: biochemical
In short: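 Histone-coated plate ADP-ribosylation format: compound preincubated 10 min at room temperature with preincubated (25 °C, 10 min) enzyme mixture; incorporated biotin detected by streptavidin-HRP and QuantaRed fluorescence (Ex550/Em620).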

Sequence of PARP7 (Q7Z3E1 whole entry): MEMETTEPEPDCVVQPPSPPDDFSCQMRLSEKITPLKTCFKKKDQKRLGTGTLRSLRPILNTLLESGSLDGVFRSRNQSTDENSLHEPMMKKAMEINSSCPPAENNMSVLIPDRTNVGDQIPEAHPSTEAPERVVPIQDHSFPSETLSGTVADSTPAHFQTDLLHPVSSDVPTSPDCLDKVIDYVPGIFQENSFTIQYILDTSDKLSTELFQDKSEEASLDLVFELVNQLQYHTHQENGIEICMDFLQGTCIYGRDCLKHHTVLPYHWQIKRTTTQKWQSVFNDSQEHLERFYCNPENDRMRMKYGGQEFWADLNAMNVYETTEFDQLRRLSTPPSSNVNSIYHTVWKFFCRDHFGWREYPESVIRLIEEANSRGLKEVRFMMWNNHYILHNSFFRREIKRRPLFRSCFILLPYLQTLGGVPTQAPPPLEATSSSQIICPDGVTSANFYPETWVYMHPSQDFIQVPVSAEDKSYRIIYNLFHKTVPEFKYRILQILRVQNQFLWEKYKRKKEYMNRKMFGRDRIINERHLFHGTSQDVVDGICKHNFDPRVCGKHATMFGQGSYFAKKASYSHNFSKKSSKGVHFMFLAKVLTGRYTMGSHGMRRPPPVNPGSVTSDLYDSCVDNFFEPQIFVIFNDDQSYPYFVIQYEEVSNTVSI

Question: Which IC50 does the source give for `N#CC[C@@H]1CN(c2ncc(C(F)(F)F)cn2)CCN1C(=O)OCCc1c[nH]c(=O)c(C(F)(F)F)c1` [Example 128, 2-(6-Oxo-5-(trifluoromethyl)-1,6-dihydropyridin-3-yl)ethyl (R)-2-(cyanomethyl)-4-(5-(trifluoromethyl)pyrimidin-2-yl)piperazine-1-carboxylate] here?
Answer: 0.81 nM

Question: `O=C(OCCc1c[nH]c(=O)c(C(F)(F)F)c1)N1CCN(c2ncc(C(F)(F)F)cc2F)CC1` [Example 130, 2-(6-Oxo-5-(trifluoromethyl)-1,6-dihydropyridin-3-yl)ethyl 4-(3-fluoro-5-(trifluoromethyl)pyridin-2-yl)piperazine-1-carboxylate] was tested. Which IC50 did it give?
Answer: 0.77 nM

Question: Which IC50 does the source give for `Cc1cc(C(F)(F)F)cnc1N1CCN(C(=O)OCCc2c[nH]c(=O)c(C(F)(F)F)c2)CC1` [Example 132, 2-(6-Oxo-5-(trifluoromethyl)-1,6-dihydropyridin-3-yl)ethyl 4-(3-methyl-5-(trifluoromethyl)pyridin-2-yl)piperazine-1-carboxylate] here?
Answer: 0.78 nM

Question: `Cc1[nH]c(=O)c(C(F)(F)F)cc1C[C@H](C)OC(=O)N1CCN(c2ncc(C(F)(F)F)cn2)CC1` [Example 133, (S)-1-(2-Methyl-6-oxo-5-(trifluoromethyl)-1,6-dihydropyridin-3-yl)propan-2-yl 4-(5-(trifluoromethyl)pyrimidin-2-yl)piperazine-1-carboxylate] was tested. Which IC50 did it give?
Answer: 0.76 nM

Question: For `O=C(Oc1ccccc1-c1c[nH]c(=O)c(C(F)(F)F)c1)N1CCN(c2ncc(C(F)(F)F)cn2)CC1` [Example 134, 2-(6-Oxo-5-(trifluoromethyl)-1,6-dihydropyridin-3-yl)phenyl 4-(5-(trifluoromethyl)pyrimidin-2-yl)piperazine-1-carboxylate], which IC50 is on record?
Answer: 1.92 nM

Question: How did the IC50 turn out when `Cc1ccc(OC(=O)N2CCN(c3ncc(C(F)(F)F)cn3)CC2)cc1-c1c[nH]c(=O)c(C(F)(F)F)c1` [Example 135, 4-Methyl-3-(6-oxo-5-(trifluoromethyl)-1,6-dihydropyridin-3-yl)phenyl 4-(5-(trifluoromethyl)pyrimidin-2-yl)piperazine-1-carboxylate] was run?
Answer: 2.78 nM

Question: How did the IC50 turn out when `O=C(Oc1cncc(-c2c[nH]c(=O)c(C(F)(F)F)c2)c1)N1CCN(c2ncc(C(F)(F)F)cn2)CC1` [Example 136, 6′-Oxo-5′-(trifluoromethyl)-1′,6′-dihydro-[3,3′-bipyridin]-5-yl 4-(5-(trifluoromethyl)pyrimidin-2-yl)piperazine-1-carboxylate] was run?
Answer: 3.53 nM

Question: With `O=C(Oc1ccnc(-c2c[nH]c(=O)c(C(F)(F)F)c2)c1)N1CCN(c2ncc(C(F)(F)F)cn2)CC1` [Example 137, 6′-Oxo-5′-(trifluoromethyl)-1′,6′-dihydro-[2,3′-bipyridin]-4-yl 4-(5-(trifluoromethyl)pyrimidin-2-yl)piperazine-1-carboxylate] as the compound, how does the IC50 read?
Answer: 2.4 nM

Question: For `Cc1cc(OC(=O)N2CCN(c3ncc(C(F)(F)F)cn3)CC2)cc(-c2c[nH]c(=O)c(C(F)(F)F)c2)c1` [Example 138, 3-Methyl-5-(6-oxo-5-(trifluoromethyl)-1,6-dihydropyridin-3-yl)phenyl 4-(5-(trifluoromethyl)pyrimidin-2-yl)piperazine-1-carboxylate], which IC50 is on record?
Answer: 1.8 nM

Question: With `O=C(Oc1ccc(F)c(-c2c[nH]c(=O)c(C(F)(F)F)c2)c1)N1CCN(c2ncc(C(F)(F)F)cn2)CC1` [Example 139, 4-Fluoro-3-(6-oxo-5-(trifluoromethyl)-1,6-dihydropyridin-3-yl)phenyl 4-(5-(trifluoromethyl)pyrimidin-2-yl)piperazine-1-carboxylate] as the compound, how does the IC50 read?
Answer: 0.9 nM

Question: Which IC50 does the source give for `C[C@@H]1CN(c2ncc(C(F)(F)F)cn2)CCN1C(=O)Oc1cccc(-c2c[nH]c(=O)c(C(F)(F)F)c2)c1` [Example 140, 3-(6-Oxo-5-(trifluoromethyl)-1,6-dihydropyridin-3-yl)phenyl (R)-2-methyl-4-(5-(trifluoromethyl)pyrimidin-2-yl)piperazine-1-carboxylate] here?
Answer: 2.86 nM

Question: With `N#Cc1ccc(N2CCN(C(=O)OCCc3c[nH]c(=O)c(C(F)(F)F)c3)CC2)nc1` [Example 144, 2-(6-Oxo-5-(trifluoromethyl)-1,6-dihydropyridin-3-yl)ethyl 4-(5-cyanopyridin-2-yl)piperazine-1-carboxylate] as the compound, how does the IC50 read?
Answer: 1.5 nM

Question: `C[C@H]1CN(c2ncc(C(F)(F)F)cn2)C[C@H](C)N1C(=O)OCCc1c[nH]c(=O)c(C(F)(F)F)c1` [Example 145, 2-(6-Oxo-5-(trifluoromethyl)-1,6-dihydropyridin-3-yl)ethyl (2S,6S)-2,6-dimethyl-4-(5-(trifluoromethyl)pyrimidin-2-yl)piperazine-1-carboxylate] was tested. Which IC50 did it give?
Answer: 2.3 nM

Question: How did the IC50 turn out when `C[C@@H]1CN(c2ncc(C(F)(F)F)cn2)C[C@@H](C)N1C(=O)OCCc1c[nH]c(=O)c(C(F)(F)F)c1` [Example 148, 2-(6-Oxo-5-(trifluoromethyl)-1,6-dihydropyridin-3-yl)ethyl (2R,6R)-2,6-dimethyl-4-(5-(trifluoromethyl)pyrimidin-2-yl)piperazine-1-carboxylate] was run?
Answer: 0.77 nM

Question: For `C[C@@H]1CN(C(=O)OCCc2c[nH]c(=O)c(C(F)(F)F)c2)C[C@@H](C)N1c1ncc(C(F)(F)F)cn1` [Example 149, 2-(6-Oxo-5-(trifluoromethyl)-1,6-dihydropyridin-3-yl)ethyl (3R,5R)-3,5-dimethyl-4-(5-(trifluoromethyl)pyrimidin-2-yl)piperazine-1-carboxylate], which IC50 is on record?
Answer: 0.64 nM

Question: How did the IC50 turn out when `C[C@@H]1CN(c2ncc(C(F)(F)F)cn2)C[C@H](C)N1C(=O)OCCc1c[nH]c(=O)c(C(F)(F)F)c1` [Example 150, 2-(6-Oxo-5-(trifluoromethyl)-1,6-dihydropyridin-3-yl)ethyl (2S,6R)-2,6-dimethyl-4-(5-(trifluoromethyl)pyrimidin-2-yl)piperazine-1-carboxylate] was run?
Answer: 0.71 nM

Question: `C[C@@H]1CN(c2ncc(C3CC3)cn2)C[C@H](C)N1C(=O)OCCc1c[nH]c(=O)c(C(F)(F)F)c1` [Example 151, 2-(6-Oxo-5-(trifluoromethyl)-1,6-dihydropyridin-3-yl)ethyl (2R,6S)-4-(5-cyclopropylpyrimidin-2-yl)-2,6-dimethylpiperazine-1-carboxylate] was tested. Which IC50 did it give?
Answer: 1.1 nM

Question: With `O=C(OCCc1c[nH]c(=O)c(C(F)(F)F)c1)N1CCN(c2ncc(C3CC3)cn2)CC1` [Example 152, 2-(6-Oxo-5-(trifluoromethyl)-1,6-dihydropyridin-3-yl)ethyl 4-(5-cyclopropylpyrimidin-2-yl)piperazine-1-carboxylate] as the compound, how does the IC50 read?
Answer: 0.76 nM

Question: How did the IC50 turn out when `C[C@@H]1CN(C(=O)OCCc2c[nH]c(=O)c(C(F)(F)F)c2)C[C@H](C)N1c1ncc(C(F)(F)F)cn1` [Example 153, 2-(6-Oxo-5-(trifluoromethyl)-1,6-dihydropyridin-3-yl)ethyl (3R,5S)-3,5-dimethyl-4-(5-(trifluoromethyl)pyrimidin-2-yl)piperazine-1-carboxylate] was run?
Answer: 0.65 nM

Question: `C[C@@H]1CN(c2ncc(C(F)(F)F)cn2)[C@@H](C)CN1C(=O)O[C@@H](C)Cc1c[nH]c(=O)c(C(F)(F)F)c1` [Example 155, (S)-1-(6-Oxo-5-(trifluoromethyl)-1,6-dihydropyridin-3-yl)propan-2-yl (2R,5S)-2,5-dimethyl-4-(5-(trifluoromethyl)pyrimidin-2-yl)piperazine-1-carboxylate] was tested. Which IC50 did it give?
Answer: 0.59 nM

Question: `C[C@@H]1CN(c2ncc(C(F)(F)F)cn2)C[C@H](C)N1C(=O)O[C@@H](C)Cc1c[nH]c(=O)c(C(F)(F)F)c1` [Example 156, (S)-1-(6-Oxo-5-(trifluoromethyl)-1,6-dihydropyridin-3-yl)propan-2-yl (2R,6S)-2,6-dimethyl-4-(5-(trifluoromethyl)pyrimidin-2-yl)piperazine-1-carboxylate] was tested. Which IC50 did it give?
Answer: 0.98 nM

Question: `C[C@@H]1CN(C(=O)O[C@@H](C)Cc2c[nH]c(=O)c(C(F)(F)F)c2)C[C@@H](C)N1c1ncc(C(F)(F)F)cn1` [Example 157, (S)-1-(6-Oxo-5-(trifluoromethyl)-1,6-dihydropyridin-3-yl)propan-2-yl (3R,5R)-3,5-dimethyl-4-(5-(trifluoromethyl)pyrimidin-2-yl)piperazine-1-carboxylate] was tested. Which IC50 did it give?
Answer: 0.9 nM

Question: How did the IC50 turn out when `C[C@@H]1CN(c2ncc(C(F)(F)F)cn2)C[C@@H](C)N1C(=O)O[C@@H](C)Cc1c[nH]c(=O)c(C(F)(F)F)c1` [Example 158, (S)-1-(6-Oxo-5-(trifluoromethyl)-1,6-dihydropyridin-3-yl)propan-2-yl (2R,6R)-2,6-dimethyl-4-(5-(trifluoromethyl)pyrimidin-2-yl)piperazine-1-carboxylate] was run?
Answer: 5 nM

Question: For `C[C@@H](Cc1c[nH]c(=O)c(C(F)(F)F)c1)OC(=O)N1[C@@H](C)CN(c2ncc(C(F)(F)F)cn2)C[C@@H]1C` [Example 159, (S)-1-(6-Oxo-5-(trifluoromethyl)-1,6-dihydropyridin-3-yl)propan-2-yl (2S,6S)-2,6-dimethyl-4-(5-(trifluoromethyl)pyrimidin-2-yl)piperazine-1-carboxylate], which IC50 is on record?
Answer: 0.9 nM

Question: For `C[C@@H]1CN(C(=O)O[C@@H](C)Cc2c[nH]c(=O)c(C(F)(F)F)c2)[C@@H](C)CN1c1ncc(C(F)(F)F)cn1` [Example 160, (S)-1-(6-Oxo-5-(trifluoromethyl)-1,6-dihydropyridin-3-yl)propan-2-yl (2S,5R)-2,5-dimethyl-4-(5-(trifluoromethyl)pyrimidin-2-yl)piperazine-1-carboxylate], which IC50 is on record?
Answer: 1.3 nM

Question: Which IC50 does the source give for `C[C@@H]1CN(c2ncc(C(F)(F)F)cn2)[C@H](C)CN1C(=O)O[C@@H](C)Cc1c[nH]c(=O)c(C(F)(F)F)c1` [Example 161, (S)-1-(6-Oxo-5-(trifluoromethyl)-1,6-dihydropyridin-3-yl)propan-2-yl (2R,5R)-2,5-dimethyl-4-(5-(trifluoromethyl)pyrimidin-2-yl)piperazine-1-carboxylate] here?
Answer: 0.91 nM

Question: `C[C@@H]1CN(C(=O)O[C@@H](C)Cc2c[nH]c(=O)c(C(F)(F)F)c2)C[C@H](C)N1c1ncc(C(F)(F)F)cn1` [Example 162, (S)-1-(6-Oxo-5-(trifluoromethyl)-1,6-dihydropyridin-3-yl)propan-2-yl (3S,5R)-3,5-dimethyl-4-(5-(trifluoromethyl)pyrimidin-2-yl)piperazine-1-carboxylate] was tested. Which IC50 did it give?
Answer: 1.2 nM
